Assay results from US9944654B2, “Nargenicin compounds and uses thereof as antibacterial agents” (priority 2014, dated 2018).
≈ marks a conversion by molar mass, not a printed value. Where two headings read alike, the source gives them in different places.

Assays:
[1] = molecular target: T1, E. coli DnaE (DNA polymerase III α-subunit from Escherichia coli) (Escherichia coli, UniProt P10443); test: In vitro DnaE single enzyme assay (E. coli); format: biochemical
T1 construct: EcDnaE (E. coli DnaE residues 1-1160); 6xHis (N); made in house; host or cells: E. coli BL21(DE3)
T1 sequence (P10443 whole entry, the tested form may be a part): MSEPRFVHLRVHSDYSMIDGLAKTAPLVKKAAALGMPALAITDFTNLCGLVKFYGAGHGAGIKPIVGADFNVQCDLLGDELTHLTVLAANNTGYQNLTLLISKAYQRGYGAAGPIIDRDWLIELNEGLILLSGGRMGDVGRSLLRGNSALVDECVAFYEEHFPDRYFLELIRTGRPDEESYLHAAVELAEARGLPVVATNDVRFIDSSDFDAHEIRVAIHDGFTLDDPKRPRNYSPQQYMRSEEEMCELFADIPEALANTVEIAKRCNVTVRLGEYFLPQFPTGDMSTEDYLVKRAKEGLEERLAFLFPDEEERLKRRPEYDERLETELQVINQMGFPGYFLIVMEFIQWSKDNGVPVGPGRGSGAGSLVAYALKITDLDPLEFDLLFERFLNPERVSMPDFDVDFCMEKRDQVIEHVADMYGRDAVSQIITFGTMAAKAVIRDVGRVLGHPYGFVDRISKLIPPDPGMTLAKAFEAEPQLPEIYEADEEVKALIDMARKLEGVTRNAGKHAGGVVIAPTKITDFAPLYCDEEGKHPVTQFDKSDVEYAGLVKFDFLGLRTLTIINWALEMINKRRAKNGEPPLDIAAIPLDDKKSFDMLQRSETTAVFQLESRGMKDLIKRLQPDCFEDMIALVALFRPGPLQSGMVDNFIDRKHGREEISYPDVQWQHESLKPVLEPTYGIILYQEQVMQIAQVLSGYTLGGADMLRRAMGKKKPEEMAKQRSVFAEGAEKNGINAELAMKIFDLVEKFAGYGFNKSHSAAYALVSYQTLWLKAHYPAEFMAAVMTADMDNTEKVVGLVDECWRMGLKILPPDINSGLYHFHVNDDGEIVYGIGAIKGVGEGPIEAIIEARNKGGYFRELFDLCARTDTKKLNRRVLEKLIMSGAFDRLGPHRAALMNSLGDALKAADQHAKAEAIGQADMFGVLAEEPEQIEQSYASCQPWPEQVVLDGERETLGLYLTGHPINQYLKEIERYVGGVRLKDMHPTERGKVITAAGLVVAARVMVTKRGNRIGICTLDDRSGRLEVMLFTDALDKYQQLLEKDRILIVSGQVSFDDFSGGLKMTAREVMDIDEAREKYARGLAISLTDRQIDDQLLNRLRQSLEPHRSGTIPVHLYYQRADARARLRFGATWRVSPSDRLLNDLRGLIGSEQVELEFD
Description: (§1) Plasmids encoding EcDnaE (E. coli DnaE residues 1-1160) and SaDnaE (S. aureus DnaE residues 1-1065) with 6×His N-terminal tags, were overexpressed in BL21(DE3) and BL21-AI cells (Invitrogen), respectively. Cells were grown in LB media to an OD ˜0.45 pelleted and then resuspended in Minimal Media, as described in Pryor et al. (1997, Protein Expr Purif. 10:309-19), and inducer (0.4 mM IPTG or 0.2% arabinose) for 21 hours at 18° C. at 220 rpm. Cells were then harvested, frozen for 20 minutes at −80° C. and thawed. Pellets were resuspended in 1× Talon buffer (50 mM Sodium Phosphate, 300 mM Sodium Chloride, pH 7.4) +10% glycerol +Roche PI's (-EDTA). Cells were lysed with two passes through a French press, then centrifuged for 45 minutes at 40,000 rpm (70Ti, Beckman). Supernatant was bound to 5 mL TALON resin (CLONTECH) for 1 hour at room temperature on Nutator. TALON resin was washed with 10 mM imidizole, and DnaE was eluted with 250 mM imidizole. Eluate was concentrated and run on a size exclusion column (SEC200, GE Healthcare) in the following buffer; 25 mM HEPES, 30 mM NaCl,1 mM CaCl2, 5% glycerol, pH 7.9. Pool SEC fractions based on SDS-PAGE run, aliquot, freeze, and store at -80° C.
(§2) DnaE was diluted in 50 mM potassium phosphate pH 7.5, 5 mM BME, 10% glycerol and 200 mM NaCl prior to use.
(§3) The purpose of the DnaE single enzyme assay is to determine the ability of compounds to inhibit the DNA polymerase III α-subunit homolog from Staphylococcus aureus or the α-subunit from Escherichia coli without the other components of the replication machinery. The DnaE single enzyme assay was a modified version of the method, Standard Pol III Assay Using Activated DNA and Four dNTPs, described by Butler et al., 2008, Methods in Molecular Medicine: New Antibiotic Targets 142:25-36. Briefly, in 96-well plates, enzyme was added to a mixture containing 30 mM Tris-HCl pH 7.5, 20% glycerol, 4 mM DTT, 10 mM Mg acetate, 0.025 mM dATP, 0.025 mM dGTP, 0.025 mM dc:TP, 0.011 mM ^3H-dTTP 1 mCi/ml (Perkin-Elmer), and 0.298 mg/mL Dnase I (Sigma) treated “activated” Calf Thymus DNA (Worthington Biochemical). The assay was set up so that 5 μl of compound was distributed to the plates, 90 μl of reaction mix was added to the compound, and 5 μl of enzyme was added to start the reaction. Assays were initiated by the addition of 0.8 μg/ml E. coli or 0.05 μg/ml S. aureus DnaE, incubated for 30 min at 30° C., and terminated by the addition of a 20% trichloroacetic acid and 0.2% sodium pyrophosphate solution. Precipitated labeled DNA was collected on Glass-fiber Filtermat A using Micro96 Harvester, and the filters were washed, dried, and counted in a Microbeta Trilux (Perkin Elmer). Serial dilutions of compounds (in DMSO) were added to the plates before enzyme addition.

[2] = molecular target: T2, S. aureus DnaE (DNA polymerase III α-subunit homolog from Staphylococcus aureus) (Staphylococcus aureus, UniProt Q5HF71); test: biochemical; format: biochemical
T2 construct: SaDnaE (S. aureus DnaE residues 1-1065); 6xHis (N); made in house; host or cells: E. coli BL21-AI
T2 sequence (Q5HF71 1-1065): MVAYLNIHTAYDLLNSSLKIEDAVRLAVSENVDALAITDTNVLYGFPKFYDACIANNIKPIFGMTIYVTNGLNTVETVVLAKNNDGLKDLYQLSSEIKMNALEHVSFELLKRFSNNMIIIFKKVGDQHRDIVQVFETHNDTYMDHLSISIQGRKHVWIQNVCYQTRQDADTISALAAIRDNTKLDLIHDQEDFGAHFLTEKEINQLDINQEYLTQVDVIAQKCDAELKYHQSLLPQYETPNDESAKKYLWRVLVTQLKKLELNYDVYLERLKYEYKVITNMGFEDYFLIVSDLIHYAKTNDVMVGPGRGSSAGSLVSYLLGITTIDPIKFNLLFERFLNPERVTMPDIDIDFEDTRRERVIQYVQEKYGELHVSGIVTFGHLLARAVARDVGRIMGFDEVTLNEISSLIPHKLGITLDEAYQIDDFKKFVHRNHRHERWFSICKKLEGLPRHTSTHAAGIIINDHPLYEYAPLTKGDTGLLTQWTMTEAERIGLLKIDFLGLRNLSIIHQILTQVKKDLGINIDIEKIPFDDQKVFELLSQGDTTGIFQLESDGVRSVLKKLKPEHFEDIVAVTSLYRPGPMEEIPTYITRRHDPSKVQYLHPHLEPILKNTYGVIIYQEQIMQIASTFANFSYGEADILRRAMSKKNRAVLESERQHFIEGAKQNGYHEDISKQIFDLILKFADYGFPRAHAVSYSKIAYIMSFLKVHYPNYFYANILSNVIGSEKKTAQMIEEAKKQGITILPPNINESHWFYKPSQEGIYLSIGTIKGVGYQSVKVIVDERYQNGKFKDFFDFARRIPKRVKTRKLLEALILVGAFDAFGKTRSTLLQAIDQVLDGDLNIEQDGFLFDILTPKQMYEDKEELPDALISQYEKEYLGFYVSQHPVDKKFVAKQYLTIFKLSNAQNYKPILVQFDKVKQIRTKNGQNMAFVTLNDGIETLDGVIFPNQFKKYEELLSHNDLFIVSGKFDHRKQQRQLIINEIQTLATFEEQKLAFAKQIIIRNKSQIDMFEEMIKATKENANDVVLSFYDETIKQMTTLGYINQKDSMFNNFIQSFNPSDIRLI
Description: as §1, §2, §3

[3] = system: Escherichia coli MB5747 (LS 883, tolC); test: microbe, parasite or virus in culture; format: cell-based; conditions: Escherichia coli, read-out: E. coli LS883 tolC (MIC), MHII broth; * = some reduction of growth versus control at […]
[4] = system: Pseudomonas aeruginosa MB5890 (CB1101, efflux-deleted); test: microbe, parasite or virus in culture; format: cell-based; conditions: Pseudomonas aeruginosa, read-out: P. aeruginosa MB5890 efflux-del (MIC), MHII broth; * = some reduction of growth versus control at […]
[5] = system: Staphylococcus aureus MB6266 (MRSA COL); test: Nargenicin antibacterial assay (MIC), S. aureus; format: cell-based; conditions: Staphylococcus aureus, MRSA, read-out: S. aureus COL (MIC), MHII broth + 50% human serum; * = some reduction of growth versus control at […]
[6] = system: Streptococcus pneumoniae MB6357 (CL 2883); test: Nargenicin antibacterial assay (MIC), S. pneumoniae; format: cell-based; conditions: Streptococcus pneumoniae, read-out: S. pneumoniae MB2883 (MIC), Isosensitest broth; * = some reduction of growth versus control at […]
[7] = read-out: E. coli DnaE IC50 (converted)
[8] = read-out: S. aureus DnaE IC50 (converted)

Row | Structure (SMILES) | IC50 [1, 7] [µM] | IC50 ([2]; S. aureus DnaE IC50) [µM] | MIC [3] [mg/L] | MIC [4] [mg/L] | MIC [5] [mg/L] | MIC [6] [mg/L] | IC50 ([1]; E. coli DnaE IC50) [µM] | IC50 [2, 8] [µM]
1 | CO[C@H]1C[C@H]2C[C@@H](O)[C@H]3[C@H]4O[C@]2(/C(C)=C/[C@@H](C)[C@@H]([C@@H](C)O)OC1=O)[C@@H]3[C@H](O)[C@@H](C)[C@H]4OC(=O)c1ccc[nH]1 [Example 194] | > 187 | 9.37 | 128 (≈ 240 µM) | > 128 | > 128 | > 128 |  | 
2 | CO[C@H]1C[C@H]2C=CC3C4[C@H](O)[C@@H](C)[C@@H](OC(=O)c5ccc[nH]5)[C@@H]3O[C@]42/C(C)=C/[C@@H](C)[C@@H]([C@@H](C)OC(=O)C(=O)NCc2ccccc2)OC1=O [Example 114, (3R,4S,7S,8aS,11R,12R,13R,14R,14bS,E)-4-((R)-1-(2-(benzylamino)-2-oxoacetoxy)ethyl)-14-hydroxy-7-methoxy-1,3,13-trimethyl-6-oxo-3,4,6,7,8,8a,10a,11,12,13,14,14a-dodecahydro-11,14b-epoxynaphtho[2,1-e]oxecin-12-yl 1H-pyrrole-2-carboxylate] |  | < 0.00887 | 0.25 (≈ 0.369 µM) | 8 (≈ 11.8 µM) | < 0.125 | > 128 | 16.3 | 
3 | CO[C@H]1C[C@H]2C=C[C@H]3[C@H]4O[C@]2(/C(C)=C/[C@@H](C)[C@@H]([C@@H](C)O)OC1=O)[C@@H]3[C@H](OC(N)=O)[C@@H](C)[C@H]4O [Example 187] | > 215 | 0.387 | 16 (≈ 34.4 µM) | 32 (≈ 68.7 µM) | > 128 | > 128 |  | 
4 | CO[C@H]1C[C@H]2C=C[C@H]3[C@H]4O[C@]2(/C(C)=C/[C@@H](C)[C@@H]([C@@H](C)OC(=O)OCCO)OC1=O)[C@@H]3[C@H](O)[C@@H](C)[C@H]4OC(=O)c1ccc[nH]1 [Example 30] | 116 | < 0.00994 | 1 (≈ 1.66 µM) | 16 (≈ 26.5 µM) | 0.5 | 64 (≈ 106 µM) |  | 
5 | CO[C@H]1C[C@H]2C=C[C@H]3[C@H]4O[C@]2(/C(C)=C/[C@@H](C)[C@@H]([C@@H](C)O)OC1=O)[C@@H]3[C@H](O)[C@@H](C)[C@@H]4N [Example 151, (3R,4S,7S,8aS,10aR,11R,12S,13S,14R,14aS,14bS,E)-12-amino-14-hydroxy-4-((R)-1-hydroxyethyl)-7-methoxy-1,3,13-trimethyl-3,4,8,8a,10a,11,12,13,14,14 a-decahydro-11,14b-epoxynaphtho [2,1-e]oxecin-6(7H)-one] |  | 4.98 | > 128 | > 128 | > 128 | > 128 | > 237 | 
6 | CO[C@H]1C[C@H]2C=CC3C4[C@H](O)[C@@H](C)[C@@H](OC(=O)c5ccc[nH]5)[C@@H]3O[C@]42/C(C)=C/[C@@H](C)[C@@H]([C@@H](C)OC(=O)C(=O)OCc2ccncc2)OC1=O.O=C(O)C(F)(F)F [Example 69] | 6.31 | < 0.00757 | 1 | 32 | 2 | > 128 |  | 
7 | COC(=O)O[C@H](C)[C@H]1OC(=O)[C@@H](OC)CC2C=C[C@H]3[C@H]4O[C@]2(/C(C)=C/[C@H]1C)[C@@H]3[C@H](O)[C@@H](C)[C@H]4OC(=O)c1ccc[nH]1 (stereo partly drawn) [Example 27] | 61 | < 0.0105 | 4 (≈ 6.97 µM) | > 128 | 2 | 64 (≈ 112 µM) |  | 
8 | CO[C@H]1CC2C=C[C@H]3[C@H]4O[C@]2(/C(C)=C/[C@@H](C)[C@@H](C(C)=O)OC1=O)[C@@H]3[C@H](O)[C@@H](C)[C@H]4OC(=O)c1ccc[nH]1 (stereo partly drawn) [Example 177] | 8.76 | < 0.0117 | 0.5 (≈ 0.974 µM) | 8 (≈ 15.6 µM) | 1 | > 128 |  | 
9 | C=CC[C@@H]1OC(=O)[C@@H](OC)C[C@H]2C=C[C@H]3[C@H]4O[C@]2(/C(C)=C/[C@H]1C)[C@@H]3[C@H](O)[C@@H](C)[C@H]4OC(=O)c1ccc[nH]1 [Example 54] | 60.6 | 0.088 | 64 (≈ 125 µM) | > 128 | 64 | > 128 |  | 
10 | CO[C@H]1C[C@H]2C=C[C@H]3[C@H]4O[C@]2(/C(C)=C/[C@@H](C)[C@@H]([C@@H](C)OC(=O)c2ccccc2)OC1=O)[C@@H]3[C@H](O)[C@@H](C)[C@H]4OC(=O)c1ccc[nH]1 [Example 67] |  |  | > 128 | > 128 | > 128 | > 128 | 12.9 | 0.0113
11 | CO[C@H]1C[C@H]2C=C[C@H]3[C@H]4O[C@]2(/C(C)=C/[C@@H](C)[C@@H]([C@@H](C)OC(=O)NCCN(C)C)OC1=O)[C@@H]3[C@H](O)[C@@H](C)[C@H]4OC(=O)c1ccc[nH]1 [Example 5] |  |  | 16 (≈ 25.4 µM) | > 128 | 32 | > 128 | > 159 | 0.0143
12 | CO[C@H]1C[C@H]2C=CC3C4[C@H](O)[C@@H](C)[C@@H](OC(=O)c5ccc[nH]5)[C@@H]3O[C@]42/C(C)=C/[C@@H](C)[C@@H]([C@@H](C)OC(=O)C(=O)OCc2cncn2C)OC1=O.O=C(O)C(F)(F)F [Example 207] | 3.27 | < 0.00754 | 4 | 64 | 4 | > 64 |  | 
